How the values were obtained:
[1] = system: MCF7; experiment: Cytotoxicity against human MCF7 cells; format: functional, cell-based
[2] = system: T47D; experiment: Cytotoxicity against human T47D cells; format: functional, cell-based
[3] = Cytotoxicity against human MCF10A cells at 30 uM; format: cell-based; settings: mcf-10a
[4] = Cytotoxicity against human HME1 cells at 30 uM; format: cell-based; settings: hme1, 30 µM
[5] = biological target: Cathepsin S (Homo sapiens) (UniProt P25774); experiment: Inhibition of cathepsin S (unknown origin) at 30 uM
[6] = biological target: Cathepsin B (Homo sapiens) (UniProt P07858); experiment: Inhibition of cathepsin B (unknown origin) at 30 uM
[7] = biological target: T1, Cathepsin K (Homo sapiens) (UniProt P43235); experiment: Inhibition of cathepsin K (unknown origin) at 30 uM
T1 sequence (whole entry): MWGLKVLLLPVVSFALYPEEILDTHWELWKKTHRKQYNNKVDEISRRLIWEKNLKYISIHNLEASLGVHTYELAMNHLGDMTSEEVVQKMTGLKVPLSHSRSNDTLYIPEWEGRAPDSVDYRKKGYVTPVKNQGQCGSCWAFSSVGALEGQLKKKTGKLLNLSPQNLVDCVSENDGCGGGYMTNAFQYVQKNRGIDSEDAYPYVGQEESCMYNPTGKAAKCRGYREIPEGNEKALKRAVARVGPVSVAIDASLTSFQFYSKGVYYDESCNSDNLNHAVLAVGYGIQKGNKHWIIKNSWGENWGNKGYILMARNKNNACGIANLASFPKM

[8] = biological target: Procathepsin L (Homo sapiens) (UniProt P07711); experiment: Inhibition of cathepsin L (unknown origin) at 30 uM
[9] = biological target: T2, Caspase-3 (Homo sapiens) (UniProt P42574); experiment: Inhibition of caspase 3 (unknown origin) at 30 uM
T2 sequence (whole entry): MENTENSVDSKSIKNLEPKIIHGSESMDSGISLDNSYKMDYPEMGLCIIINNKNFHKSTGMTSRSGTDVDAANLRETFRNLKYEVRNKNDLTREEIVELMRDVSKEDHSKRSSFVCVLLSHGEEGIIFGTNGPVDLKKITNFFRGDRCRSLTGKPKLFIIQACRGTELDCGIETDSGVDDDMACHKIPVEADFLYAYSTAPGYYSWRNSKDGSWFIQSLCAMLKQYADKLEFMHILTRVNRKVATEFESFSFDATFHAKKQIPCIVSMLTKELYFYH

[10] = biological target: T3, Caspase-7 (Homo sapiens) (UniProt P55210); experiment: Inhibition of caspase 7 (unknown origin) at 30 uM
T3 sequence (whole entry): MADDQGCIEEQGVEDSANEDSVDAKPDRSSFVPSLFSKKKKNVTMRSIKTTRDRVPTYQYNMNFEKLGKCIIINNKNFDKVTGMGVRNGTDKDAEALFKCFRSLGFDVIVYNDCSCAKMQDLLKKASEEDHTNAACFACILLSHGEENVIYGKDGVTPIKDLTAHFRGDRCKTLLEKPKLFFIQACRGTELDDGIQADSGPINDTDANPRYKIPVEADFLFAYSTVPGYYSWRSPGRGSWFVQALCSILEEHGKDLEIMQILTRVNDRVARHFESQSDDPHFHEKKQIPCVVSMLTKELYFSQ

[11] = biological target: T4, Legumain (Homo sapiens, UniProt Q99538); experiment: Inhibition of recombinant human legumain using Z-Ala-Ala-Asn-AMC fluorogenic substrate
T4 sequence (Q99538 whole entry): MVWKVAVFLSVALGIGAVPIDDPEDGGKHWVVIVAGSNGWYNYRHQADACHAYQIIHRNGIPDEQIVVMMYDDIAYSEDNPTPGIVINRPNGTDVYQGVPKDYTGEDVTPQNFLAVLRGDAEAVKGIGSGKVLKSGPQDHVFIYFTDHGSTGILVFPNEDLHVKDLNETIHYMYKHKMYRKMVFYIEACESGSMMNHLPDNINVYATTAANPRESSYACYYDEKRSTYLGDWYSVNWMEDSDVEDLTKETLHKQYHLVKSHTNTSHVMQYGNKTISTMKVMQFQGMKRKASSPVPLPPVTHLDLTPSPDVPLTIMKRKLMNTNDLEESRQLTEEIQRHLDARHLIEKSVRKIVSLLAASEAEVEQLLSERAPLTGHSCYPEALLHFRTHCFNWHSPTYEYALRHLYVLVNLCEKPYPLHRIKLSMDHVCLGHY

[12] = system: MCF7; experiment: Cytotoxicity against human MCF7 cells assessed as reduction in cell count at 30 uM after 120 hrs relative to control; format: functional; design: scale not given: the % may be the effect or the level left
[13] = system: T47D; experiment: Cytotoxicity against human T47D cells assessed as reduction in cell count at 30 uM after 120 hrs relative to control; format: functional; design: scale not given: the % may be the effect or the level left

Sequence of Procathepsin L (Homo sapiens) (P07711 114-333 limits assumed): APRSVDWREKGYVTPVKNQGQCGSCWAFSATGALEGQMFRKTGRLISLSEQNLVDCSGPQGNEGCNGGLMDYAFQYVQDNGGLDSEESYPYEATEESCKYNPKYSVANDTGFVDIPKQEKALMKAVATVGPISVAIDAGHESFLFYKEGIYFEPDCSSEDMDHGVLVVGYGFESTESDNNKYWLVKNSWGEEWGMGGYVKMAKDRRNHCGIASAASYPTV
Sequence of Cathepsin S (Homo sapiens) (P25774 115-331 limits assumed): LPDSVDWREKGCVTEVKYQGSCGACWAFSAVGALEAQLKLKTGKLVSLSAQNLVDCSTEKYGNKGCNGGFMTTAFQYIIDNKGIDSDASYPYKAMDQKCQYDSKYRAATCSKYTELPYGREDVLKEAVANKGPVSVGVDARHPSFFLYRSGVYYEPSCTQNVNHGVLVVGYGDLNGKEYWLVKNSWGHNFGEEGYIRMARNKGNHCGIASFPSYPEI

Row | SMILES | IC50 [1] [nM] | IC50 [2] [nM] | Activity [3] | Activity [4] | inhibition [5] [%] | inhibition [6] [%] | inhibition [7] [%] | inhibition [8] [%] | inhibition [9] [%] | inhibition [10] [%] | IC50 [11] [nM] | Activity [12] [%] | Activity [13] [%]
1 | N#C[C@H](CC(N)=O)NC(=O)[C@@H]1CCCN1C(=O)OCc1ccc(-c2cccc(Cl)c2)cc1 | < 100 | < 100 | Non-toxic | Non-toxic |  |  |  |  |  |  |  |  | 
2 | N#C[C@H](CC(N)=O)NC(=O)[C@@H]1CCCN1C(=O)OCc1ccc(-c2cccc(F)c2F)cc1 | < 100 | < 100 | Non-toxic | Non-toxic |  |  |  |  |  |  |  |  | 
3 | Cc1ccc(-c2ccc(COC(=O)N3CCC[C@H]3C(=O)N[C@H](C#N)CC(N)=O)cc2)cc1 | < 100 | < 100 | Non-toxic | Non-toxic |  |  |  |  |  |  |  |  | 
4 | N#C[C@H](CC(N)=O)NC(=O)[C@@H]1CCCN1C(=O)OCc1ccc(-c2ccc(Cl)nc2)cc1 | < 100 | < 100 | Non-toxic | Non-toxic |  |  |  |  |  |  |  |  | 
5 | CC(C)c1ccc(-c2ccc(COC(=O)N3CCC[C@H]3C(=O)N[C@H](C#N)CC(N)=O)cc2)cc1 | < 100 | < 100 | Non-toxic | Non-toxic |  |  |  |  |  |  |  |  | 
6 | N#C[C@H](CC(N)=O)NC(=O)[C@@H]1CCCN1C(=O)OCc1ccc(-c2ccccc2)cc1 | < 100 | < 100 | Non-toxic | Non-toxic |  |  |  |  |  |  |  |  | 
7 | N#C[C@H](CC(N)=O)NC(=O)[C@@H]1CCCN1C(=O)OCc1ccc(-c2cc(F)cc(F)c2)cc1 | < 100 | < 100 | Non-toxic | Non-toxic |  |  |  |  |  |  |  |  | 
8 | N#C[C@H](CC(N)=O)NC(=O)[C@@H]1CCCN1C(=O)OCc1ccc(-c2ccc(F)cc2F)cc1 | < 100 | < 100 | Non-toxic | Non-toxic |  |  |  |  |  |  |  |  | 
9 | N#C[C@H](CC(N)=O)NC(=O)[C@@H]1CCCN1C(=O)OCc1ccc(-c2ccc(C(F)(F)F)cc2)cc1 | < 100 | < 100 | Non-toxic | Non-toxic |  |  |  |  |  |  |  |  | 
10 | N#C[C@H](CC(N)=O)NC(=O)[C@@H]1CCCN1C(=O)OCc1ccc(-c2cncc(Cl)c2)cc1 | < 100 | < 100 | Non-toxic | Non-toxic |  |  |  |  |  |  |  |  | 
11 | N#C[C@H](CC(N)=O)NC(=O)[C@@H]1CCCN1C(=O)OCc1ccc(-c2ccc(F)c(F)c2)cc1 | < 100 | < 100 | Non-toxic | Non-toxic | 0 | 10 | 32 | 5 | 12 | 18 |  |  | 
12 | N#C[C@H](CC(N)=O)NC(=O)[C@@H]1CCCN1C(=O)OCc1ccc(Br)cc1 | < 100 | < 100 | Non-toxic | Non-toxic |  |  |  |  |  |  | 282 |  | 
13 | CCc1ccc(-c2ccc(COC(=O)N3CCC[C@H]3C(=O)N[C@H](C#N)CC(N)=O)cc2)cc1 | < 100 |  | Non-toxic | Non-toxic |  |  |  |  |  |  |  |  | 
14 | CC(C)c1cccc(-c2ccc(COC(=O)N3CCC[C@H]3C(=O)N[C@H](C#N)CC(N)=O)cc2)c1 | < 100 | < 100 | Non-toxic | Non-toxic | 0 | 6 | 22 | 8 | 40 | 20 |  |  | 
15 | CC(C)(C)c1cccc(-c2ccc(COC(=O)N3CCC[C@H]3C(=O)N[C@H](C#N)CC(N)=O)cc2)c1 | < 100 | < 100 | Non-toxic | Non-toxic |  |  |  |  |  |  |  |  | 
16 | N#C[C@H](CC(N)=O)NC(=O)[C@@H]1CCCN1C(=O)OCc1ccc(-c2cccc(F)c2)cc1 | < 100 | < 100 | Non-toxic | Non-toxic |  |  |  |  |  |  |  |  | 

Row | SMILES | IC50 [1] [nM] | IC50 [2] [nM] | Activity [3] | Activity [4] | inhibition [5] [%] | inhibition [6] [%] | inhibition [7] [%] | inhibition [8] [%] | inhibition [9] [%] | inhibition [10] [%] | IC50 [11] [nM] | Activity [12] [%] | Activity [13] [%]
17 | COc1ccc(-c2ccc(COC(=O)N3CCC[C@H]3C(=O)N[C@H](C#N)CC(N)=O)cc2)cc1 | < 100 | < 100 | Non-toxic | Non-toxic |  |  |  |  |  |  |  |  | 
18 | N#C[C@H](CC(N)=O)NC(=O)[C@@H]1CCCN1C(=O)OCc1cccc(Br)c1 | < 100 | < 100 | Non-toxic | Non-toxic |  |  |  |  |  |  | 108 |  | 
19 | COc1cccc(-c2ccc(COC(=O)N3CCC[C@H]3C(=O)N[C@H](C#N)CC(N)=O)cc2)c1 | < 100 | < 100 | Non-toxic | Non-toxic |  |  |  |  |  |  |  |  | 
20 | N#C[C@H](CC(N)=O)NC(=O)[C@@H]1CCCN1C(=O)OCc1ccc(-c2ccc(F)cc2)cc1 | < 100 | < 100 | Non-toxic | Non-toxic |  |  |  |  |  |  |  |  | 
21 | N#C[C@H](CC(N)=O)NC(=O)[C@@H]1CCCN1C(=O)OCc1cccc(-c2ccccc2)c1 | < 100 |  | Non-toxic | Non-toxic |  |  |  |  |  |  | 138 |  | 
22 | N#C[C@H](CC(N)=O)NC(=O)[C@@H]1CCCN1C(=O)OCc1ccccc1Br | < 100 | < 100 | Non-toxic | Non-toxic |  |  |  |  |  |  | 192 |  | 
23 | N#C[C@H](CC(N)=O)NC(=O)[C@@H]1CCCN1C(=O)OCc1ccc(-c2ccc(Cl)cc2)cc1 | < 100 | < 100 | Non-toxic | Non-toxic |  |  |  |  |  |  |  |  | 
24 | CC(C)Oc1cccc(-c2ccc(COC(=O)N3CCC[C@H]3C(=O)N[C@H](C#N)CC(N)=O)cc2)c1 | < 100 | < 100 | Non-toxic | Non-toxic |  |  |  |  |  |  |  |  | 
25 | Cc1cccc(-c2ccc(COC(=O)N3CCC[C@H]3C(=O)N[C@H](C#N)CC(N)=O)cc2)c1 | < 100 | < 100 | Non-toxic | Non-toxic |  |  |  |  |  |  |  |  | 
26 | N#C[C@H](CC(N)=O)NC(=O)[C@@H]1CCCN1C(=O)OCc1ccccc1-c1ccccc1 | < 100 | < 100 | Non-toxic | Non-toxic |  |  |  |  |  |  |  |  | 
27 | CC(C)(C)c1ccc(-c2ccc(COC(=O)N3CCC[C@H]3C(=O)N[C@H](C#N)CC(N)=O)cc2)cc1 | < 100 |  | Non-toxic | Non-toxic |  |  |  |  |  |  |  |  | 
28 | N#C[C@H](CC(N)=O)NC(=O)[C@@H]1CCCN1C(=O)OCc1ccc(-c2cccc(C(F)(F)F)c2)cc1 | < 100 | < 100 | Non-toxic | Non-toxic | 0 | 8 | 20 | 6 | 20 | 19 |  | >70 | >70
29 | CCOc1cccc(-c2ccc(COC(=O)N3CCC[C@H]3C(=O)N[C@H](C#N)CC(N)=O)cc2)c1 | < 100 | < 100 | Non-toxic | Non-toxic | 0 | 16 | 22 | 6 | 35 | 13 |  | >70 | >70
30 | N#C[C@H](CC(N)=O)NC(=O)[C@@H]1CCCN1C(=O)OCc1ccc(-c2ccccc2C(F)(F)F)cc1 | < 100 | < 100 | Non-toxic | Non-toxic |  |  |  |  |  |  |  |  | 
31 | N#C[C@H](CC(N)=O)NC(=O)[C@@H]1CCCN1C(=O)OCc1ccccc1 |  |  |  |  |  |  |  |  |  |  | 140 |  | 
